Assay [1] concerns type I collagen output by normal human neonatal dermal fibroblasts. The experiment in a line: Type I collagen output, sandwich ELISA of conditioned medium. It is filed as cell-based. The settings on record: for effect on type I collagen (in words): tested range. How it is done:
(§1) Test materials. Test materials (Table 2) were stored at +4° C. and were diluted in distilled sterile water immediately before testing. Cells & experimental procedures. Normal dermal human neonatal dermal fibroblasts (ScienCell; […] The next day (Day 1), test materials, reference substances [MAP (100 μg/ml), MAP (50 μg/ml) and niacinamide (400 μg/ml, 250 μg/ml and 80 μg/ml, based on PMC7950568 and PMC8622652)] and negative control (H2O) were added, and cell culture was pursued for three additional days, afterward the cell culture conditioned medium was used for type I & IV collagen quantification, while cells were formalin-fixed and type III collagen was measured by direct ELISA. The effect of the test articles on cell numbers was determined using the sulforhodamine B method (Table 3). MAP: magnesium ascorbyl phosphate. All colorimetric measurements were acquired using multi-mode SpectraMax i3x platform (Molecular Devices, San Jose CA) assisted with SoftMax 7.0.3. PRO. 21 software. […] [table]
In general terms: An ELISA detects its analyte on a solid surface through an enzyme-linked reagent.

For assay [2], the system named is type IV collagen output by normal human neonatal dermal fibroblasts. The experiment in a line: Type IV collagen output, ELISA of conditioned medium. Format: cell-based. To be noted: for effect on type IV collagen (in words): tested range. How it is done: as §1
For assay [3], the system named is type III collagen output by normal human neonatal dermal fibroblasts. The experiment in a line: Type III collagen, direct ELISA on formalin-fixed cells. To be noted: for effect on type III collagen (in words): tested range. Format: cell-based. How it is done: as §1
Assay [4] relates to normal human neonatal dermal fibroblasts. The experiment in a line: Cell numbers, sulforhodamine B method. Format: cell-based. The protocol:
as §1
On the technique in general: Sulforhodamine B stains cellular protein and so reports cell mass.

Assay [5] addresses T1, elastase (Sus scrofa, UniProt P00772).
T1 construct: purchased Promega V1891
The experiment in a line: Elastase activity assay. It is filed as biochemical, human. How it is done:
(§2) Test Materials. Test materials (Table 8) were stored at +4° C. and were diluted in distilled sterile water immediately before testing. All experimental conditions were tested in biological triplicates.
Elastase activity assay. The reaction was initiated by adding 10 μl of 20 μg/ml elastase enzyme (Promega, cat. #V1891, lot #409147) to the assay mixture [10 mM Tris-HCl pH 7.5+/−0.5, 1 mg/ml elastase substrate VIII (Suc-Ala-Ala-Ala-pNA)] containing different experimental conditions, and the reaction kinetics were monitored at room temperature by measuring absorbance at 405 nm in the SpectraMax i3x microplate reader. Sterile distilled water was the negative, and EI III (Calbiochem cat. #324745) was the positive control. […]. Colorimetric readings were adjusted by subtracting the absorbance in wells containing the same experimental conditions but without elastase and were expressed as % of water control.
(§3) Statistical analysis. Statistical significance threshold was established as minimum 20% modulation and p value <0.05 as determined by two-tailed Student test.

In assay [6] the test system is Clostridium collagenase IV (a generic metalloproteinase). The experiment in a line: Metalloproteinase (collagenase) activity assay, Enzchek kit, quenched fluorescent gelatin. It is filed as biochemical. The protocol: as §2
Metalloproteinase activity assay. The activity of the test materials towards collagenase proteolytic activity was examined by adding dilutions of test articles to the Enzchek kit reaction mixture (Molecular Probes/Invitrogen/ThermoFisher). Clostridium collagenase IV (a generic metalloproteinase) was used as the protease and quenched fluorescent gelatin was the substrate. Phenanthroline, a potent collagenase inhibitor was used as positive control at 1000 μM. The kinetics of the release of the digested, fluorescent gelatin were measured at excitation/emission wavelengths of 485/530 nm with the SpectraMax i3x microplate reader. Fluorescence readings were adjusted by subtracting the values in wells containing no collagenase and were expressed in arbitrary fluorescence units and as % of water-treated controls.
as §3

Molecules are shown by their SMILES. Marks after values point to notes of the source that are not given here. Residues, ends and D or L forms follow the SMILES beside them.

T1 sequence (P00772 27-266): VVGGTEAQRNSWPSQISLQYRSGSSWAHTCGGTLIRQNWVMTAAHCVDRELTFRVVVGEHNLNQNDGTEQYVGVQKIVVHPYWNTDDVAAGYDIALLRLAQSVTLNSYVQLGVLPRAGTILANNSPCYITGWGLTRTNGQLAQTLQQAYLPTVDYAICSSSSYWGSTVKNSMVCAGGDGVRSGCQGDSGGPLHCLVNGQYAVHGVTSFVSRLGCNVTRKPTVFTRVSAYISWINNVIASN

As for `O=C1O[C@H]([C@@H](O)CO)C([O-])=C1OP(=O)([O-])[O-].O=C1O[C@H]([C@@H](O)CO)C([O-])=C1OP(=O)([O-])[O-].[Mg+2].[Mg+2].[Mg+2]` [MAP, magnesium ascorbyl phosphate], the “Type I collagen (% Control)” value is 148 % Control in assay [1] (50 ug/mL) and 166 % Control in assay [1] (100 ug/mL). Also, the “effect on type I collagen (in words)” value in assay [1] is given as “strong stimulatory response”. Also, the “Type IV collagen (% Control)” value was found to be 694 % Control in assay [2] (50 ug/mL) and 703 % Control in assay [2] (100 ug/mL). Besides, the “effect on type IV collagen (in words)” value in assay [2] is recorded as “strong stimulatory response”. In addition, the “Type III collagen (% Control)” value came out at 1977 % Control in assay [3] (50 ug/mL) and 1874 % Control in assay [3] (100 ug/mL). The “effect on type III collagen (in words)” value in assay [3] is “strong stimulatory response”. The “Cell Numbers (% Control)” value is listed as 130 % Control in assay [4] (50 ug/mL) and 139 % Control in assay [4] (100 ug/mL).

Take `COC(=O)CCC(=O)N[C@@H](C)C(=O)N[C@@H](C)C(=O)N1CCC[C@H]1C(=O)N[C@H](C(=O)CCl)C(C)C` [El III] (HELM PEPTIDE1{[COC(=O)CCC(=O)[*:2]].A.A.P.V.[ClC[*:1]]}$$$$V2.0): the “Elastase activity (% Control)” value in assay [5] (1 ug/mL, t = 20 min) is recorded as 9*** % Control. Moreover, the “suppressive effect on elastase activity (in words)” value in assay [5] (tested range) is “nearly complete inhibitory activity”.

As to `NC(=O)c1cccnc1` [niacinamide], the “Type I collagen (% Control)” value in assay [1] (80 ug/mL) is given as 94 % Control; in assay [1] (250 ug/mL), 130 % Control; in assay [1] (400 ug/mL) it was 130 % Control. Also, the “type I collagen increase / upregulation (description summary)” value in assay [1] (concentration not given) is “up to 130%”. Also, the “effect on type I collagen (in words)” value in assay [1] was “upregulated type I collagen at the two highest tested concentrations”. Also, the “Type IV collagen (% Control)” value in assay [2] (80 ug/mL) was 88 % Control; in assay [2] (250 ug/mL) it was 86 % Control; in assay [2] (400 ug/mL), 104 % Control. For the same compound, the “effect on type IV collagen (in words)” value in assay [2] is given as “no effect”. Besides, the “Type III collagen (% Control)” value in assay [3] (80 ug/mL) came to 106 % Control; in assay [3] (250 ug/mL), 106 % Control; in assay [3] (400 ug/mL) it was 111 % Control. For the same compound, the “effect on type III collagen (in words)” value in assay [3] is recorded as “no effect”. Moreover, the “Cell Numbers (% Control)” value is recorded as 99 % Control in assay [4] (80 ug/mL), 99 % Control in assay [4] (250 ug/mL) and 96 % Control in assay [4] (400 ug/mL).

`c1cnc2c(c1)ccc1cccnc12` [Phenanthroline]: the “MP activity (% CTR)” value in assay [6] (positive control at 1000 μM, t = 20 min) is reported as 0* % CTR. In addition, in assay [6] (tested range), the “inhibitory effect on collagenase (MP) / generic metalloproteinase activity (in words)” value is given as “total inhibitory activity”.
